Among the data in BindingDB's records for patent US20240190893 (Janssen Pharmaceutica, 2024) are Ki values, retold here.

Several values for one entry are separate records, joined by “and”; a condition that tells them apart may be missing. Equal values may be shown once.

A word on the Ki: it is a dissociation constant, usually derived from enzyme kinetics or from competition with a known ligand. Read a high Ki as a looser hold on the target.

In this assay the target is Induced myeloid leukemia cell differentiation protein Mcl-1 (Homo sapiens, UniProt Q07820). The experiment in a line: Terbium labeled Myeloid Cell Leukemia 1 (Mcl-1) homogeneous time-resolved fluorescence (HTRF) binding assay. The source says:
This assay evaluated inhibition of the BH3 domain: Mcl-1 interaction by measuring the displacement of Cy5-labeled BIM BH3 peptide (H2N (C/Cy5Mal) WIAQELRRIGDEFN-OH) in the HTRF assay format.
On the technique in general: Time-resolved FRET reads energy transfer from a long-lived donor to a nearby acceptor.

Induced myeloid leukemia cell differentiation protein Mcl-1, sequence (Q07820 whole entry, the tested form may be a part): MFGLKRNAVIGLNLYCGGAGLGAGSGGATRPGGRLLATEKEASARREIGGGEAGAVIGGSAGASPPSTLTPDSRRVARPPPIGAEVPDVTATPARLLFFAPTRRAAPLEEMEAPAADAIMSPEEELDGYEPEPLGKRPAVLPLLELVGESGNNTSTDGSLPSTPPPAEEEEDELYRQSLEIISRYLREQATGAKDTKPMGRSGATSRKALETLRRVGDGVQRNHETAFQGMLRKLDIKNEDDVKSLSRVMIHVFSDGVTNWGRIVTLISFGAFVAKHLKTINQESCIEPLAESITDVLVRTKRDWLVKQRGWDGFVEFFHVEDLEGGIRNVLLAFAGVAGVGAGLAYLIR

For the compound `Cc1nn(C)c(C)c1-c1c(Cl)ccc2c3c(C(=O)O)n(c12)CCCSCc1cc(n(C)n1)CSc1cc(c2ccccc2c1)OCCC3` [US20240190893, Compound 19], the inhibition constant Ki was 1.44 nM and 0.249 nM.
